Results published in patent publication US11697648B2, “Fused pyrimidine pyridinone compounds as JAK inhibitors” (THERAVANCE BIOPHARMA R&D IP, LLC, priority 2019, dated 2023).

Tests used:
[1] = molecular target: JAK2 (Homo sapiens (Human), UniProt O60674); assay: Biochemical JAK2 kinase assay (LanthaScreen)
Protocol: (§1) Assay 1: Biochemical JAK and Tyk2 Kinase Assays
(§2) A panel of four LanthaScreen JAK biochemical assays (JAK1, 2, 3 and Tyk2) were carried in a common kinase reaction buffer (50 mM HEPES, pH 7.5, 0.01% Brij-35, 10 mM MgCl2, and 1 mM EGTA). Recombinant GST-tagged JAK enzymes and a GFP-tagged STAT1 peptide substrate were obtained from Life Technologies.
(§3) Serially or discretely diluted compounds were pre-incubated with each of the four JAK enzymes and the substrate in white 384-well microplates (Corning) at ambient temperature for 1 h. ATP was subsequently added to initiate the kinase reactions in 10 μL total volume, with 1% DMSO. […] Kinase reactions were allowed to proceed for 1 hour at ambient temperature before a 10 μL preparation of EDTA (10 mM final concentration) and Tb-anti-pSTAT1 (pTyr701) antibody (Life Technologies, 2 nM final concentration) in TR-FRET dilution buffer (Life Technologies) was added. The plates were allowed to incubate at ambient temperature for 1 h before being read on the EnVision reader (Perkin Elmer). Emission ratio signals (520 nm/495 nm) were recorded and utilized to calculate the percent inhibition values based on DMSO and background controls.
(§4) For dose-response analysis, percent inhibition data were plotted vs. compound concentrations, and IC50 values were determined from a 4-parameter robust fit model with the Prism software (GraphPad Software). Results were expressed as pIC50 (negative logarithm of IC50) and subsequently converted to pKi (negative logarithm of dissociation constant, Ki) using the Cheng-Prusoff equation.

[2] = molecular target: JAK3 (Homo sapiens (Human), UniProt P52333); assay: Biochemical JAK3 kinase assay (LanthaScreen); settings: for JAK3 (pKi)-JAK1 (pKi): selectivity JAK3 over JAK1, difference of pKi
Protocol: as §1, §2, §3, §4

[3] = molecular target: Tyk2 (Homo sapiens (Human), UniProt P29597); assay: Biochemical Tyk2 kinase assay (LanthaScreen)
Protocol: as §1, §2, §3, §4

[4] = molecular target: JAK1 (Homo sapiens (Human), UniProt P23458); assay: Biochemical JAK1 kinase assay (LanthaScreen)
Protocol: as §1, §2, §3, §4

[5] = tested on: IL-2 stimulated STAT5 phosphorylation in Tall-1 human T cell line (JAK3); assay: Cellular JAK3 potency assay: inhibition of IL-2 stimulated pSTAT5 in Tall-1 T cells; format: cell-based; settings: IL-2 stimulated pSTAT5, Tall-1 T cells
Protocol: Assay 2: Cellular JAK3 Potency Assay: Inhibition of IL-2 Stimulated pSTAT5 in Tall-1 T Cells
The potency of test compounds for inhibition of interleukin-2 (IL-2) stimulated STAT5 phosphorylation was measured in the Tall-1 human T cell line (DSMZ) using AlphaLisa. Because IL-2 signals through JAK3, this assay provides a measure of JAK3 cellular potency.
Phosphorylated STAT5 was measured via the AlphaLISA SureFire Ultra pSTAT5 (Tyr694/699) kit (PerkinElmer).
Human T cells from the Tall-1 cell line were cultured in a 37° C., 5% CO2 humidified incubator in RPMI (Life Technologies) supplemented with 15% Heat Inactivated Fetal Bovine Serum (FBS, Life Technologies), 2 mM Glutamax (Life Technologies), 25 mM HEPES (Life Technologies) and 1× Pen/Strep (Life Technologies). Compounds were serially diluted in DMSO and dispensed acoustically to empty wells. Assay media (phenol red-free DMEM (Life Technologies) supplemented with 10% FBS (ATCC)) was dispensed (4 μL/well) and plates shaken at 900 rpm for 10 inns. Cells were seeded at 45,000 cells/well in assay media (4 μL/well), and incubated at 37° C., 5% CO2 for 1 hour, followed by the addition of IL-2 (R&D Systems; final concentration 300 ng/ml) in pre-warmed assay media (4 μL) for 30 minutes. After cytokine stimulation, cells were lysed with 6 ul of 3× AlphaLisa Lysis Buffer (PerkinElmer) containing 1× PhosStop and Complete tablets (Roche). The lysate was shaken at 900 rpm for 10 minutes at room temperature (RT). Phosphorylated STAT5 was measured via the pSTAT5 AlphaLisa kit (PerkinElmer). Freshly prepared acceptor bead mixture was dispensed onto lysate (5 μL) under green filtered <100 lux light. Plates were shaken at 900 rpm for 2 mins, briefly spun down, and incubated for 2 hrs at RT in the dark. Donor beads were dispensed (5 μL) under green filtered <100 lux light. Plates were shaken at 900 rpm for 2 minutes, briefly spun down, and incubated overnight at RT in the dark. Luminescence was measured with excitation at 689 nm and emission at 570 nm using an EnVision plate reader (PerkinElmer) under green filtered <100 lux light.
To determine the inhibitory potency of test compounds in response to IL-2, the average emission intensity of beads bound to pSTAT5 was measured in a human T cell line. IC50 values were determined from analysis of the inhibition curves of signal intensity versus compound concentration. Data are expressed as pIC50 (negative decadic logarithm IC50) values (mean standard deviation).

JAK1, sequence (P23458 whole entry): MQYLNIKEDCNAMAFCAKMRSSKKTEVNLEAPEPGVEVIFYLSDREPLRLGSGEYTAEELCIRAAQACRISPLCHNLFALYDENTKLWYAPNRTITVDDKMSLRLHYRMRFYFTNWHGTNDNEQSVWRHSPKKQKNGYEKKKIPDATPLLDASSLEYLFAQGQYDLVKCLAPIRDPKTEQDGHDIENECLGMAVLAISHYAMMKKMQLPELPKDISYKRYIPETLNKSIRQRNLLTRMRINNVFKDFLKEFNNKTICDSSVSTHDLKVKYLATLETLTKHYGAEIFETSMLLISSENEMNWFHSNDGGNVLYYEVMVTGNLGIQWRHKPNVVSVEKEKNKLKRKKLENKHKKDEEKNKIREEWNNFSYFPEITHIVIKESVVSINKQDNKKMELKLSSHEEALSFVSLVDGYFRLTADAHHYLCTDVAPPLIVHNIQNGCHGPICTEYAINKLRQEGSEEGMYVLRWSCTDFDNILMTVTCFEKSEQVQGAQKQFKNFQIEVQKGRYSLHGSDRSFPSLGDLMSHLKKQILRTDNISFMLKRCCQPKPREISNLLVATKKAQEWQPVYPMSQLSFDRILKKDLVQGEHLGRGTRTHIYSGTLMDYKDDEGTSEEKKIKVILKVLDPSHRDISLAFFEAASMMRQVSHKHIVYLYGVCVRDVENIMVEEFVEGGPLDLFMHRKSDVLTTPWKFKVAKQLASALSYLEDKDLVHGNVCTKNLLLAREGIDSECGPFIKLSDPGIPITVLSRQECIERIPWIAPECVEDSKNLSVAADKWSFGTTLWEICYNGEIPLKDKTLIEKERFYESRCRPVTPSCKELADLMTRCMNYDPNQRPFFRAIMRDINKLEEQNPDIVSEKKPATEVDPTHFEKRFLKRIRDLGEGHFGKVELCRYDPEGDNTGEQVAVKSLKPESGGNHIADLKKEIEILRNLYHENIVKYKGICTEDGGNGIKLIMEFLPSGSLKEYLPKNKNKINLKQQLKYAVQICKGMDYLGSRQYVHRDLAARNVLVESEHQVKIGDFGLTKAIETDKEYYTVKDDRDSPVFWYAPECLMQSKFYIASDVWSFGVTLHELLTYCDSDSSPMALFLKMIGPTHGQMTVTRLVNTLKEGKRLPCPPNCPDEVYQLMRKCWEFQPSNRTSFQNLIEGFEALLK
Tyk2, sequence (P29597 whole entry): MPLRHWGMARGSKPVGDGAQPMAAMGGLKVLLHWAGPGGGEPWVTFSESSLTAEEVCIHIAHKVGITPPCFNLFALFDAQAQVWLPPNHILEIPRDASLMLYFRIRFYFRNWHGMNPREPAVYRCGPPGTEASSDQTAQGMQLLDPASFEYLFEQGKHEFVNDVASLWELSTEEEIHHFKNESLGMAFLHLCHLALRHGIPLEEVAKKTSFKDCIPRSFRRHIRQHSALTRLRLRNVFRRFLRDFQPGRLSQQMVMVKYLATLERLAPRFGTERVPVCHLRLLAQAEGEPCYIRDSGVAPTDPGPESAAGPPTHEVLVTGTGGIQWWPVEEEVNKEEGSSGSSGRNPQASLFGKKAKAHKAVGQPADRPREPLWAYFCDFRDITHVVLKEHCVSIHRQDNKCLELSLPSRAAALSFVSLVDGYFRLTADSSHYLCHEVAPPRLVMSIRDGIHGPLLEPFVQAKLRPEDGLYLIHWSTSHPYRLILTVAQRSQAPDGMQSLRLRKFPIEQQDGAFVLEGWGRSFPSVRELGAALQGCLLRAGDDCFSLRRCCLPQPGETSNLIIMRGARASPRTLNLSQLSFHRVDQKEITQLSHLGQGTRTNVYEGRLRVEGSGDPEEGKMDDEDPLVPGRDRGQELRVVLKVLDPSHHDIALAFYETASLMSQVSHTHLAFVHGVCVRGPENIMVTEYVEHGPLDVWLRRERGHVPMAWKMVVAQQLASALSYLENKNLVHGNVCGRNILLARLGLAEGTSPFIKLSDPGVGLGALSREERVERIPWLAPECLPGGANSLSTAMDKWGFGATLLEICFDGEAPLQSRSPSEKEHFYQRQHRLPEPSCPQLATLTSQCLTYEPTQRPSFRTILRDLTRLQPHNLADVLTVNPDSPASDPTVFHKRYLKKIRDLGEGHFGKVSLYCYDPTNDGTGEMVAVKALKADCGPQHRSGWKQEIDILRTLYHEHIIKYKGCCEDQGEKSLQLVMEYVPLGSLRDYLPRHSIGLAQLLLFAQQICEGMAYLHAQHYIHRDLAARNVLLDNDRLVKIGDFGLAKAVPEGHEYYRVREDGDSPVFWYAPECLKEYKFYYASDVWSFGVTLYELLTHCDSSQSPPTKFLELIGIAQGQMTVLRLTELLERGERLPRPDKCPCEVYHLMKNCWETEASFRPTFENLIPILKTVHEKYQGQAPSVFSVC
JAK3, sequence (P52333 whole entry): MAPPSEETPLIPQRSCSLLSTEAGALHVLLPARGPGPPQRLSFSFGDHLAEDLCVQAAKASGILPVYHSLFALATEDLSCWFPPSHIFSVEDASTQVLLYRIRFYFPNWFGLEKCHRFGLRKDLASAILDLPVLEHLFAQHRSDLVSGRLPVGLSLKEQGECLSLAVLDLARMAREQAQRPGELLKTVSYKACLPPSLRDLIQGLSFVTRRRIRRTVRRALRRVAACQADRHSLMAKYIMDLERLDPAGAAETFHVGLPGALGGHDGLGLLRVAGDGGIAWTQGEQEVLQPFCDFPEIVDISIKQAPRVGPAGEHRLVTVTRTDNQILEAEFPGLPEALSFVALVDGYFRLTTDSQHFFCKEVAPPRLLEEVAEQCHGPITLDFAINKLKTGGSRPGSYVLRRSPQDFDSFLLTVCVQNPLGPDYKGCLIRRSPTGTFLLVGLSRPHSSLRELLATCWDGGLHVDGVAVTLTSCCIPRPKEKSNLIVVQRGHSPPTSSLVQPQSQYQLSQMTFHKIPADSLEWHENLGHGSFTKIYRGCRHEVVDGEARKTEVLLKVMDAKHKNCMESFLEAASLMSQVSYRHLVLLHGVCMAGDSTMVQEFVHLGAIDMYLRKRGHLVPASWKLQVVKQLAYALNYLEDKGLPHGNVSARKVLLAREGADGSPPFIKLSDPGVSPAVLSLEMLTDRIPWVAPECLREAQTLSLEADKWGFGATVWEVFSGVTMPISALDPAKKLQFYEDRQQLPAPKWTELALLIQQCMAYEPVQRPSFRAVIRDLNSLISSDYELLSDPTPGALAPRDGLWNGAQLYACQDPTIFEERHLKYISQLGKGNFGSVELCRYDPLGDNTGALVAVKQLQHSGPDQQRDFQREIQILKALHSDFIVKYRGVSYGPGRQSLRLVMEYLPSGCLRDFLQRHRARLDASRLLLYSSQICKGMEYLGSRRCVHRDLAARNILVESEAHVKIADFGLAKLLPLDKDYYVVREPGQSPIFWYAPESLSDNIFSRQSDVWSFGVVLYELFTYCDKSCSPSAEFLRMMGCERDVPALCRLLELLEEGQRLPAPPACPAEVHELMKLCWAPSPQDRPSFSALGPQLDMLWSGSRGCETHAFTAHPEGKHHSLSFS
JAK2, sequence (O60674 whole entry): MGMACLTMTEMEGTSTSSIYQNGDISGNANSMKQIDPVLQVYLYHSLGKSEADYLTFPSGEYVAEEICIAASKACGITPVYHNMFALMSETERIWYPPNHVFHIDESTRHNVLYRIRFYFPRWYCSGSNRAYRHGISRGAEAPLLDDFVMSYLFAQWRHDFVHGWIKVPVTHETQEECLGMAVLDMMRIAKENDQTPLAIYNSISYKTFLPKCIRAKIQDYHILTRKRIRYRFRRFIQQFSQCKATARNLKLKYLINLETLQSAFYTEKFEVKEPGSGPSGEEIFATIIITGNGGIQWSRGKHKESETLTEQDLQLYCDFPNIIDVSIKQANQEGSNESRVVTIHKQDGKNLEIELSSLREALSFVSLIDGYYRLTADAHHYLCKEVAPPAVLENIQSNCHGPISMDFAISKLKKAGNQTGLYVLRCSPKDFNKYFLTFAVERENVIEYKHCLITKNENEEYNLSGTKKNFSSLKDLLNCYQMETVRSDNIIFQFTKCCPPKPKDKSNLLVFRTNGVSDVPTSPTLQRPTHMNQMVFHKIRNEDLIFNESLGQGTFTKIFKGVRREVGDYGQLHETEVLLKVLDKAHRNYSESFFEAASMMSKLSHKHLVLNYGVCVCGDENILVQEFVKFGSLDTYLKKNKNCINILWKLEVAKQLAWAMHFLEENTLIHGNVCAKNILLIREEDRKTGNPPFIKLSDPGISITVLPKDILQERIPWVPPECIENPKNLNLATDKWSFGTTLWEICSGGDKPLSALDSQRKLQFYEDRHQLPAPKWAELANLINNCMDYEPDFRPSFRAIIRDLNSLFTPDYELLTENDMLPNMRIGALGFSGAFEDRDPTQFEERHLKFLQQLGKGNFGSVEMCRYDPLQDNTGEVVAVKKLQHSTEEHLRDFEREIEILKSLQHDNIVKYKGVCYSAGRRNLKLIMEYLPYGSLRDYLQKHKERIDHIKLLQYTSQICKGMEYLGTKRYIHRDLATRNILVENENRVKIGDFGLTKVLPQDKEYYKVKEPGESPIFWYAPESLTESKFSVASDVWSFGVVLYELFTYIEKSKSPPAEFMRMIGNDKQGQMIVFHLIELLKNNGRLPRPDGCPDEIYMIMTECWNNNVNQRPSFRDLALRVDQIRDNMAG

## C=CC(=O)N1CC(CCn2c(=O)ccc3cnc(Nc4ccc(N5CCOCC5)c(F)c4)nc32)C1 [Example 23]
[1]
  JAK 2 (pKi): E (E represents a pKi value of 7 or below (Ki of 100 nM or above))
[2]
  JAK 3 (pKi): B (B represents pKi value between 9 and 10 (Ki between 1 nM and 0.1 nM))
  JAK3 (pKi)-JAK1 (pKi): A (A represents a value of 3 or above)
[3]
  Tyk 2 (pKi): E (E represents a pKi value of 7 or below (Ki of 100 nM or above))
[4]
  JAK 1 (pKi): E (E represents a pKi value of 7 or below (Ki of 100 nM or above))
[5]
  Tall-1 (pIC50): B (B represents a pC50 value between 6.7 (included) and 7.5 (IC50 between 200 nM and 32 nM))

## C=CC(=O)N1CCN(CCn2c(=O)ccc3cnc(Nc4cnn(C)c4)nc32)C(C)(C)C1 [Example 33]
[1]
  JAK 2 (pKi): E (E represents a pKi value of 7 or below (Ki of 100 nM or above))
[2]
  JAK 3 (pKi): A (A represents a pKi value≥10 (Ki≤0.1 nM))
  JAK3 (pKi)-JAK1 (pKi): A (A represents a value of 3 or above)
[3]
  Tyk 2 (pKi): E (E represents a pKi value of 7 or below (Ki of 100 nM or above))
[4]
  JAK 1 (pKi): E (E represents a pKi value of 7 or below (Ki of 100 nM or above))
[5]
  Tall-1 (pIC50): B (B represents a pC50 value between 6.7 (included) and 7.5 (IC50 between 200 nM and 32 nM))

## C=CC(=O)N1CC(CCn2c(=O)ccc3cnc(Nc4cnn(-c5ccccc5)c4)nc32)C1 [Example 34]
[1]
  JAK 2 (pKi): E (E represents a pKi value of 7 or below (Ki of 100 nM or above))
[2]
  JAK 3 (pKi): B (B represents pKi value between 9 and 10 (Ki between 1 nM and 0.1 nM))
  JAK3 (pKi)-JAK1 (pKi): A (A represents a value of 3 or above)
[3]
  Tyk 2 (pKi): E (E represents a pKi value of 7 or below (Ki of 100 nM or above))
[4]
  JAK 1 (pKi): E (E represents a pKi value of 7 or below (Ki of 100 nM or above))
[5]
  Tall-1 (pIC50): B (B represents a pC50 value between 6.7 (included) and 7.5 (IC50 between 200 nM and 32 nM))

## C=CC(=O)N1CCN(CCn2c(=O)ccc3cnc(Nc4ccc(N5CCN(C)CC5)nc4)nc32)CC1 [Example 37]
[1]
  JAK 2 (pKi): E (E represents a pKi value of 7 or below (Ki of 100 nM or above))
[2]
  JAK 3 (pKi): B (B represents pKi value between 9 and 10 (Ki between 1 nM and 0.1 nM))
  JAK3 (pKi)-JAK1 (pKi): A (A represents a value of 3 or above)
[3]
  Tyk 2 (pKi): E (E represents a pKi value of 7 or below (Ki of 100 nM or above))
[4]
  JAK 1 (pKi): E (E represents a pKi value of 7 or below (Ki of 100 nM or above))
[5]
  Tall-1 (pIC50): B (B represents a pC50 value between 6.7 (included) and 7.5 (IC50 between 200 nM and 32 nM))

## C=CC(=O)N1CCN(CCn2c(=O)ccc3cnc(Nc4ccc(N5CCN(C)CC5)c(F)c4)nc32)CC1 [Example 39]
[1]
  JAK 2 (pKi): E (E represents a pKi value of 7 or below (Ki of 100 nM or above))
[2]
  JAK 3 (pKi): B (B represents pKi value between 9 and 10 (Ki between 1 nM and 0.1 nM))
  JAK3 (pKi)-JAK1 (pKi): A (A represents a value of 3 or above)
[3]
  Tyk 2 (pKi): E (E represents a pKi value of 7 or below (Ki of 100 nM or above))
[4]
  JAK 1 (pKi): E (E represents a pKi value of 7 or below (Ki of 100 nM or above))
[5]
  Tall-1 (pIC50): B (B represents a pC50 value between 6.7 (included) and 7.5 (IC50 between 200 nM and 32 nM))

## C=CC(=O)N1CC(CCn2c(=O)ccc3cnc(Nc4ccc(N5CCN(C)CC5)cc4)nc32)C1 [Example 45]
[1]
  JAK 2 (pKi): E (E represents a pKi value of 7 or below (Ki of 100 nM or above))
[2]
  JAK 3 (pKi): B (B represents pKi value between 9 and 10 (Ki between 1 nM and 0.1 nM))
  JAK3 (pKi)-JAK1 (pKi): A (A represents a value of 3 or above)
[3]
  Tyk 2 (pKi): E (E represents a pKi value of 7 or below (Ki of 100 nM or above))
[4]
  JAK 1 (pKi): E (E represents a pKi value of 7 or below (Ki of 100 nM or above))
[5]
  Tall-1 (pIC50): B (B represents a pC50 value between 6.7 (included) and 7.5 (IC50 between 200 nM and 32 nM))

## C=CC(=O)N1CC(CCn2c(=O)ccc3cnc(Nc4ccc(CN5CCN(C)CC5)cc4)nc32)C1 [Example 46]
[1]
  JAK 2 (pKi): E (E represents a pKi value of 7 or below (Ki of 100 nM or above))
[2]
  JAK 3 (pKi): B (B represents pKi value between 9 and 10 (Ki between 1 nM and 0.1 nM))
  JAK3 (pKi)-JAK1 (pKi): A (A represents a value of 3 or above)
[3]
  Tyk 2 (pKi): E (E represents a pKi value of 7 or below (Ki of 100 nM or above))
[4]
  JAK 1 (pKi): E (E represents a pKi value of 7 or below (Ki of 100 nM or above))
[5]
  Tall-1 (pIC50): B (B represents a pC50 value between 6.7 (included) and 7.5 (IC50 between 200 nM and 32 nM))

## C=CC(=O)N1CC(CCn2c(=O)ccc3cnc(Nc4ccc(N5CCN(C)CC5)c(F)c4)nc32)C1 [Example 48]
[1]
  JAK 2 (pKi): E (E represents a pKi value of 7 or below (Ki of 100 nM or above))
[2]
  JAK 3 (pKi): B (B represents pKi value between 9 and 10 (Ki between 1 nM and 0.1 nM))
  JAK3 (pKi)-JAK1 (pKi): A (A represents a value of 3 or above)
[3]
  Tyk 2 (pKi): E (E represents a pKi value of 7 or below (Ki of 100 nM or above))
[4]
  JAK 1 (pKi): E (E represents a pKi value of 7 or below (Ki of 100 nM or above))
[5]
  Tall-1 (pIC50): B (B represents a pC50 value between 6.7 (included) and 7.5 (IC50 between 200 nM and 32 nM))

## C=CC(=O)N1CCN(CCn2c(=O)ccc3cnc(Nc4ccc(N5CCN(C)CC5)c(C)c4)nc32)CC1 [Example 49]
[1]
  JAK 2 (pKi): E (E represents a pKi value of 7 or below (Ki of 100 nM or above))
[2]
  JAK 3 (pKi): B (B represents pKi value between 9 and 10 (Ki between 1 nM and 0.1 nM))
  JAK3 (pKi)-JAK1 (pKi): A (A represents a value of 3 or above)
[3]
  Tyk 2 (pKi): E (E represents a pKi value of 7 or below (Ki of 100 nM or above))
[4]
  JAK 1 (pKi): E (E represents a pKi value of 7 or below (Ki of 100 nM or above))
[5]
  Tall-1 (pIC50): B (B represents a pC50 value between 6.7 (included) and 7.5 (IC50 between 200 nM and 32 nM))

## C=CC(=O)N1CC(CCn2c(=O)ccc3cnc(Nc4ccc(N5CCSCC5)c(F)c4)nc32)C1 [Example 53]
[1]
  JAK 2 (pKi): E (E represents a pKi value of 7 or below (Ki of 100 nM or above))
[2]
  JAK 3 (pKi): B (B represents pKi value between 9 and 10 (Ki between 1 nM and 0.1 nM))
  JAK3 (pKi)-JAK1 (pKi): A (A represents a value of 3 or above)
[3]
  Tyk 2 (pKi): E (E represents a pKi value of 7 or below (Ki of 100 nM or above))
[4]
  JAK 1 (pKi): E (E represents a pKi value of 7 or below (Ki of 100 nM or above))
[5]
  Tall-1 (pIC50): B (B represents a pC50 value between 6.7 (included) and 7.5 (IC50 between 200 nM and 32 nM))
